This is an account of results in patent US12509451B2, “Heteroaryl amide inhibitors of CD38” (NAPA THERAPEUTICS LTD., priority 2020, dated 2025).

In assay [1] the target is T1, CD38 (Mus musculus, UniProt P56528).
T1 construct: aged mice (male C57BL6/J, 22 months old) were fasted for 4 hr; from tissue; host or cells: C57BL6/J mice (aged, DIO obese or LPS-challenged); liver, spleen, plasma
T1 sequence (P56528 1-304): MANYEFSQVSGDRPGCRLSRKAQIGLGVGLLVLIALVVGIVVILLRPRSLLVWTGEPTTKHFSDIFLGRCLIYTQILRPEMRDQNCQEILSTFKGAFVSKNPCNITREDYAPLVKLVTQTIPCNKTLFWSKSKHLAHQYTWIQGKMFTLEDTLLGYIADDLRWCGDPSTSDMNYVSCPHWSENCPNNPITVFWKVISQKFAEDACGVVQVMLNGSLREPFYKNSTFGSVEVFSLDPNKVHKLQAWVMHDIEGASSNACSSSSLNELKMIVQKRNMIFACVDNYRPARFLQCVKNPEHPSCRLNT
Description: In vivo efficacy against CD38 in obese mice, acute oral administration, liver NAD+ metabolites.

For assay [2], the target named is T1, CD38. Description: In vivo efficacy against CD38 in obese mice, chronic oral administration 49 days, liver NAD+ metabolites. Particulars: 10 mg/kg BID oral, 4 hr post-dosing. As for the experimental part: The in vivo efficacy of Compound 32 against the human CD38 enzyme was tested in obese mice after oral administration and determined by mass spec (MS) analysis of NAD+ metabolites levels in liver tissue. The two main CD38 substrates, NAD+ and NMN, and the 2 main byproducts of the CD38 enzymatic reaction, NAM and ADPR, were measured.
Obese mice (male DIO C57BL6/J, 65 weeks old) treated for 49 days with compound 32 via oral gavage at a concentration of 10 mg/kg BID. On day 49, mice were humanely euthanized for liver tissue harvesting at 4 hr post-dosing. A vehicle control (1% Methylcellulose) was included to assess baseline NAD+ metabolites levels.
(§1) The procedure for tissue sample preparation and UPLC-MS/MS methods were adapted from Trammell et al. (2013) Compu. Struct. Biotechnol. J. […] (https://www.ncbi.nlm.nih.gov/pmc/articles/PMC3962138/). Frozen liver tissue was pulverized and resuspended in the extraction buffer (3:1 ethanol:10 mM aq. HEPES, pH 7.1). The samples were vortexed, sonicated briefly in a bath sonicator, and shaken at 55° C. for 3 min at 1,200 rpm. Samples were then centrifuged at 16,000×g for 10 min at 4° C., and the supernatant was dried by speedvac. The dried pellet was resuspended in 97% 10 mM ammonium acetate/3% acetonitrile, centrifuged at 16,000×g for 10 min at 4° C. and 2 μL was injected for LCMS analysis.
(§2) The UPLC-MS/MS analysis to measure NAD+ metabolites was performed using a Vanquish UHPLC system and a Q Exactive Orbitrap mass spectrometer with H-ESI ion source both from Thermo Scientific. UPLC separation was performed on a Hypercarb (2.1×100 mm, 5 μm particle size, Thermo) column following the method described in Trammell et al. (2013). Acquisition was carried out in positive ion, Parallel Reaction Monitoring (PRM) mode and targeted […] (t-SIM). The Thermo Xcalibur QualBrowser system (version 4.2.47) and Freestyle (version 1.8.51.0) softwares was used for the data processing. For relative fold change, peak areas were normalized with respective internal standards, normalized to weight of the tissue sample used, and calculated as fold change relative at 0 h timepoint/vehicle group.
The in vivo efficacy of Compound 39 against the human CD38 enzyme was tested in obese mice after oral administration and determined by mass spec analysis of NAD+ metabolites levels in liver tissue. The two main CD38 substrates, NAD+ and NMN, and the 2 main byproducts of the CD38 enzymatic reaction, NAM and ADPR, were measured.
Obese mice (male DIO C57BL6/J, 65 weeks old) treated for 49 days with compound 39 via oral gavage at a concentration of 10 mg/kg BID. On day 49, mice were humanely euthanized for liver tissue harvesting at 4 hr post-dosing. A vehicle control (1% Methylcellulose) was included to assess baseline NAD+ metabolites levels.

Assay [3] deals with T1, CD38. The assay is described as follows: In vivo efficacy against CD38 in aged mice, BID for 5 days, liver NAD+ metabolites. Particulars: 3 hr post-dosing. As for the experimental part:
The in vivo efficacy of Compound 32 against the human CD38 enzyme was tested in aged mice after oral administration and determined by mass spec (MS) analysis of NAD+ metabolites levels in liver tissue. The two main CD38 substrates, NAD+ and NMN, and the 2 main byproducts of the CD38 enzymatic reaction, NAM and ADPR, were measured.
Compound 32 was administered to aged mice (male DIO C57BL6/J, 19-22 months old) via oral gavage at a concentration of 3 mg/kg and 10 mg/kg BID for 5 days. At day 5, mice were humanely euthanized for liver tissue harvesting 3 hr post-dosing. A vehicle control (DMSO: Solutol HS 15: 80% Captisol (20% in water)(5:15:80 v/v)) was included to assess baseline NAD+ metabolites levels.
as §1, §2
The in vivo efficacy of Compound 39 against the human CD38 enzyme was tested in aged mice after oral administration and determined by mass spec analysis of NAD+ metabolites levels in liver tissue. The two main CD38 substrates, NAD+ and NMN, and the 2 main byproducts of the CD38 enzymatic reaction, NAM and ADPR, were measured.
Compound 39 was administered to aged mice (male DIO C57BL6/J, 19-22 months old) via oral gavage at a concentration of 10 mg/kg BID for 5 days. At day 5, mice were humanely euthanized for liver tissue harvesting 3 hr post-dosing. A vehicle control (DMSO: Solutol HS 15: 80% Captisol (20% in water)(5:15:80 v/v)) was included to assess baseline NAD+ metabolites levels.

Assay [4] has as its target T1, CD38. Description: LPS-induced inflammation in mice, cytokines quantification in plasma. The class given is in vivo. As for the experimental part:
The in vivo efficacy of Compound 39 against the human CD38 enzyme after LPS challenge was assessed. The effects of Compound 39 (10 mg/kg and 30 mg/kg) on inflammato cytokines, inflammation markers and NAD+ levels at 4 h and 8 h points after LPS-induced inflammation in 12 weeks old male C57BL/6J mice were evaluated.
Animals were euthanized by terminal cardiac blood puncture immediately after terminal CO2, 4 h and 8 h after LPS administration. At necropsy, the tissues (Liver, Plasma, Spleen, Kidney, Lungs, Heart, Visceral Adipose Tissue, Muscle-Gastrocnemius) were collected and quick frozen in liquid nitrogen. The blood was collected in a BD Microtainer® K2EDTA Additive Tube, centrifuge at 1000 g for 10 min at 4° C. and plasma was store at −80° C.).

The mark [5] stands for this setting: single 10 mg/kg oral dose, 1 hour post administration.
Where [6] appears, read: single 1 mg/kg and 10 mg/kg oral dose.
The mark [7] stands for this setting: 4 hour post LPS challenge, 10 mg/kg.
Setting [8] is: 4 hour post LPS challenge, 30 mg/kg.
Setting [9] is: 8 h post LPS challenge, 10 mg/kg and 30 mg/kg.

`O=C(Nc1ccnc(C(F)(F)F)c1)c1cc(OC2CC2)cc(-n2ccnc2)n1` [Compound 32, 4-cyclopropoxy-6-(1H-imidazol-1-yl)-N-(2-(trifluoromethyl)pyridin-4-yl)picolinamide]: on CD38 [1] (single 3 mg/kg oral dose), the “ADPR levels in liver” value is given as “decrease”, the “NAD+ levels in liver” value is on record as “increase”, the “NAM levels in liver” value was “decrease” and the “NMN levels in liver” value is reported as “increase”. At CD38 [1] (setting [5]), the “ADPR levels in liver” value is given as “decrease”, the “NAD+ levels in liver” value is “remarkably increase”, the “NAM levels in liver” value is “decrease” and the “NMN levels in liver” value is reported as “remarkably increase”. For the same molecule, at CD38 [2], the “ADPR levels in liver” value was “significantly decrease” and the “NAM levels in liver” value is recorded as “significantly decrease”. In addition, at CD38 [3] (3 mg/kg and 10 mg/kg BID oral), the “ADPR levels in liver” value is reported as “decrease”, the “NAD+ levels in liver” value was “significantly increase”, the “NAM levels in liver” value is given as “decrease” and the “NMN levels in liver” value is “significantly increase”.

For the molecule `COCCOc1cc(C(=O)Nc2ccnc(C(F)(F)F)c2)nc(-n2ccnc2)n1` [Compound 39, 2-(1H-imidazol-1-yl)-6-(2-methoxyethoxy)-N-(2-(trifluoromethyl)pyridin-4-yl)pyrimidine-4-carboxamide], at CD38 [1] (setting [6]), the “ADPR levels in liver” value is on record as “decrease”, the “NAD+ levels in liver” value is recorded as “increase”, the “NAM levels in liver” value was “decrease” and the “NMN levels in liver” value was “increase”. Moreover, on CD38 [2], the “ADPR levels in liver” value is “decrease”, the “NAD+ levels in liver” value is on record as “significantly increase”, the “NAM levels in liver” value was “decrease” and the “NMN levels in liver” value is “significantly increase”. Moreover, at CD38 [4] (setting [7]), the “decrease of plasma IL-6” value amounted to 43% and the “decrease of plasma TNFα” value worked out at 22%. Also, on CD38 [4] (4 hour post LPS challenge, 10 mg/kg and 30 mg/kg), the “plasma IP-10” value is listed as “statistically significant decrease”. At CD38 [4] (setting [8]), the “decrease of plasma IL-6” value is 75% and the “decrease of plasma TNFα” value was 58%. Moreover, at CD38 [4] (setting [9]), the “plasma IL-6” value is “statistically significant decrease”, the “plasma IP-10” value is on record as “statistically significant decrease” and the “plasma TNFα” value is given as “statistically significant decrease”. At CD38 [3] (10 mg/kg BID oral), the “ADPR levels in liver” value is “decrease”, the “NAD+ levels in liver” value is reported as “increase” and the “NAM levels in liver” value is “decrease”.
